# Measured values published in patent publication US20070299114A1, “Biaryl Derivatives” (Shionogi & Co., Ltd., priority 2004, published 2007).
# Target: T1, dihydrooroate dehydrogenase (Homo sapiens, UniProt Q02127)
# T1 construct: ultracentrifugation at 4° C. and 120,000×g for 60 minutes afforded a mitochondrial/microsomal fraction; endogenous in cells; host or cells: U-937 (human histiocytic lymphoma cell line), mitochondrial/microsomal fraction
# Experiment: dihydroorotate dehydrogenase inhibition, U-937 mitochondrial/microsomal fraction, DCIP absorbance at 620 nm
# Assay type: biochemical
# Conditions: DHODH of human U-937 cell mitochondrial/microsomal fraction; 37° C., 120 minutes
# Protocol: Method of Testing dihydrooroate dehydrogenase Inhibition
# Human U-937 cell (human histiocytic lymphoma cell line) was sonicated in a homogenizing buffer (20 mM Tris-HC1, pH 7.4, containing 2 mM EDTA and protease inhibitor cocktail), and this was centrifuged at 4° C. and 1,200×g for 15 minutes to remove cell debris. Further, ultracentrifugation at 4° C. and 120,000×g for 60 minutes afforded a mitochondrial/microsomal fraction. The resulting fraction was quantitated for a protein, and prepared to 10 mg/ml, which was freezing-stored in a −40° C. in a refrigerator until measurement. To 150 μl of the reaction solution (50 mM Tris-HC1, pH 7.4, containing 0.1% Triton X-100, 1 mM KCN, 100 μM coenzyme Q10, 200 μM DCIP), were added 10 μl of a dilution series of the compound and 0.2 mg of a mitochondrial/microsomal fraction, followed by pre-incubation at 37° C. for 30 minutes. Then, 20 μl of a 5 mM DHO solution (final concentration […]), which is a substrate, was added, this was incubated at 37° C. for 120 minutes, and an absorbance at a measurement wavelength of 620 nm was measured. A rate of suppression of a compound at each concentration relative to a change in an absorbance due to the enzyme reaction was obtained, and a concentration indicating 50% inhibition (IC50 value) was calculated to assess the inhibition activity of the compound.
# T1 sequence (Q02127 whole entry): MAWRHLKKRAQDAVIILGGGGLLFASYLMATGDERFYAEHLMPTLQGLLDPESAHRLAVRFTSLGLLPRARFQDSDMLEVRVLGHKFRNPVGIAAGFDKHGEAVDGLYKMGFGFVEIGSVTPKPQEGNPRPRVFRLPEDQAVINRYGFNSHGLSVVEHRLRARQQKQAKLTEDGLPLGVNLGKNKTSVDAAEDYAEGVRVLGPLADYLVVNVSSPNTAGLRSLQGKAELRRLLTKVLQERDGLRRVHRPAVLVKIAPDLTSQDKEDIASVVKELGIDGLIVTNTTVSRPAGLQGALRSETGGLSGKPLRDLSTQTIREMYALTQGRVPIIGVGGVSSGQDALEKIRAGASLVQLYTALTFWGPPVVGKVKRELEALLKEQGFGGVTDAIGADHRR
row,IC50,SMILES
1,8.14 nM,COc1cc(-c2ccc(NCc3ccco3)cc2F)c(OC)cc1/C=C(/F)C(=O)NC1CC1 [Compound 41]
2,3.67 nM,CC(C)=CCNc1ccc(-c2cc(C)c(/C=C(\C)C(=O)NC(C)C)cc2C)c(F)c1 [Compound 116]
3,7.88 nM,C/C(=C\c1cc(C)c(-c2ccc(NC(C)C)cc2F)cc1C)C(=O)NC1CC1 [Compound 154]
4,7.13 nM,CC/C(=C\c1cc(C)c(-c2ccc(NC3CCCC3)cc2F)cc1C)C(=O)NC1CC1 [Compound 173]
5,5.78 nM,Cc1cc(-c2cc(O)c3[nH]ccc3c2)c(C)cc1/C=C(\Cl)C(=O)NC1CC1 [Compound 268]
6,5.23 nM,C/C(=C\c1cc(C)c(-c2cccc3[nH]ccc23)cc1C)C(=O)NC1CC1 [Compound 281]
7,2.76 nM,CO/C(=C\c1cc(C)c(-c2ccc(NC(C)C)cc2F)cc1C)C(=O)NC(C)C [Compound 292]
8,4.07 nM,CC/C(=C\c1cc(C)c(-c2ccc(NCc3ccco3)cc2)cc1C)C(=O)NC1CCCC1 [Compound 309]
9,11.1 nM,CC/C(=C\c1cc(C)c(-c2ccc(NC3CCCC3)cc2)cc1C)C(=O)NC1CCCC1 [Compound 313]
10,2.46 nM,C/C(=C\c1cc(C)c(-c2ccc(NCc3ccco3)cc2F)cc1C)C(=O)NC1CCCC1 [Compound 334]
11,6.1 nM,COC(=O)[C@@H](C)NC(=O)/C(C)=C/c1cc(C)c(-c2ccc(NC(C)C)cc2F)cc1C [Compound 348]
12,8.97 nM,C/C(=C\c1cc(C)c(-c2ccc(NC(C)C)cc2F)cc1C)C(=O)N[C@H](C)C(=O)O [Compound 349]
13,8.84 nM,C/C(=C\c1cc(C)c(-c2ccc(NC3CCCC3)cc2)cc1C)C(=O)NC(C)(C)C [Compound 414]
14,6.11 nM,C/C(=C\c1c(C)c(C)c(-c2ccc(NC(C)C)cc2)c(C)c1C)C(=O)NC(C)C [Compound 415]
15,2.79 nM,C/C(=C\c1c(C)c(C)c(-c2ccc(NCc3ccco3)cc2)c(C)c1C)C(=O)NC(C)C [Compound 418]
16,6.49 nM,C/C(=C\c1c(C)c(C)c(-c2ccc(NC(C)C)cc2F)c(C)c1C)C(=O)NS(=O)(=O)c1ccccc1 [Compound 422]
17,2.56 nM,C/C(=C\c1c(C)c(C)c(-c2ccc(NC(C)C)cc2)c(C)c1C)C(=O)NC1CC1 [Compound 424]
18,1.01 nM,C/C(=C\c1c(C)c(C)c(-c2ccc(NC3CCCC3)cc2)c(C)c1C)C(=O)NC1CC1 [Compound 426]
19,13.1 nM,C/C(=C\c1c(C)c(C)c(-c2ccc3[nH]ccc3c2)c(C)c1C)C(=O)NC(C)C [Compound 427]
20,2.39 nM,C/C(=C\c1c(C)c(C)c(-c2ccc(NC(C)C)cc2)c(C)c1C)C(=O)NC1CCCC1 [Compound 434]
21,9.32 nM,COc1c(C)c(-c2ccc(NCC=C(C)C)cc2)c(OC)c(C)c1/C=C(\C)C(=O)NC(C)C [Compound 574]
22,9.65 nM,COc1c(C)c(-c2ccc(NCC=C(C)C)cc2)c(OC)c(C)c1/C=C(\C)C(=O)NC1CCCC1 [Compound 575]

# The remaining lines, values behind:
row,SMILES,IC50
1,COc1cc(-c2ccc(NC(C)C)cc2F)c(OC)cc1/C=C(\C)C(=O)NC1CC1 [Compound 24],7.52 nM
2,COc1cc(-c2ccc(NCc3ccco3)cc2F)c(OC)cc1/C=C(\C)C(=O)NC(C)C [Compound 27],7.73 nM
3,COc1cc(-c2ccc(NCc3ccco3)cc2F)c(OC)cc1/C=C(\C)C(=O)NC1CC1 [Compound 28],7.33 nM
4,COc1cc(-c2ccc(NCc3ccco3)cc2F)c(OC)cc1/C=C(/F)C(=O)NC(C)C [Compound 42],10.1 nM
5,C/C(=C\c1cc(C)c(-c2ccc(NCc3ccco3)cc2F)cc1C)C(=O)NC(C)C [Compound 158],7.13 nM
6,CC/C(=C\c1cc(C)c(-c2ccc(NC(C)C)cc2F)cc1C)C(=O)NC1CC1 [Compound 165],10.1 nM
7,Cc1cc(-c2cc(O)c3[nH]ccc3c2)c(C)cc1/C=C(\Cl)C(=O)NC(C)C [Compound 267],7.31 nM
8,Cc1cc(-c2ccc3[nH]ccc3c2)c(C)cc1/C=C(\Cl)C(=O)N[C@H](C)C(=O)O [Compound 299],9.57 nM
9,CC/C(=C\c1cc(C)c(-c2ccc(NC(C)C)cc2F)cc1C)C(=O)NC1CCCC1 [Compound 321],6.39 nM
10,CC/C(=C\c1cc(C)c(-c2ccc(NC3CCCC3)cc2F)cc1C)C(=O)NC1CCCC1 [Compound 324],4.68 nM
11,CC/C(=C\c1cc(C)c(-c2ccc(NC3CCCC3)cc2F)cc1C)C(=O)NC1CCCCC1 [Compound 325],10.2 nM
12,C/C(=C\c1cc(C)c(-c2ccc3[nH]c(C)cc3c2)cc1C)C(=O)NC(C)C [Compound 383],13.6 nM
13,C/C(=C\c1c(C)c(C)c(-c2ccc(NC3CCCC3)cc2)c(C)c1C)C(=O)NC(C)C [Compound 416],2.63 nM
14,C/C(=C\c1c(C)c(C)c(-c2ccc3[nH]ccc3c2)c(C)c1C)C(=O)NC1CC1 [Compound 417],6.71 nM
15,C/C(=C\c1c(C)c(C)c(-c2ccc(NCc3ccco3)cc2)c(C)c1C)C(=O)NC1CC1 [Compound 425],0.91 nM
16,C/C(=C\c1c(C)c(C)c(-c2ccc(NC3CCCC3)cc2)c(C)c1C)C(=O)NC1CCCC1 [Compound 463],9.22 nM
17,C/C(=C\c1c(C)c(F)c(-c2ccc(NC(C)C)cc2)c(C)c1F)C(=O)NC1CC1 [Compound 488],10 nM
18,Cc1c(F)c(-c2ccc(NC3CCCC3)cc2)c(C)c(F)c1/C=C(\F)C(=O)NC(C)C [Compound 518],7.2 nM
19,COc1c(C)c(-c2ccc(NC(C)C)cc2)c(OC)c(C)c1/C=C(\C)C(=O)NC1CCCC1 [Compound 528],3.33 nM
20,CC/C(=C\c1c(C)c(OC)c(-c2ccc(NC(C)C)cc2)c(C)c1OC)C(=O)NC(C)C [Compound 530],9.8 nM
21,COc1c(C)c(-c2ccc(NC3CCCC3)cc2)c(OC)c(C)c1/C=C(\C)C(=O)NC1CCCC1 [Compound 536],8.39 nM

# Tested on: anti-OVA IgE antibody
# Experiment: suppression of IgE antibody production to anti-ovalbumin (OVA) in immunized mice, PCA titer
# Assay type: in vivo
# Conditions: dose 10 mg/kg orally for consecutive 10 days; anti-OVA IgE antibody value (PCA titer, Log2 of maximum serum dilution rate) in BALB/c mice
# Protocol: Effect of Suppression of IgE Antibody Production to Anti-Ovalbumin (OVA)
# BALB/c mice (female, 8 to 10 week old) purchased from Japan Charles River (Kanagawa) and Wistar rats (female, 8 to 10 week old) purchased from Japan SLC (Sizuoka) were used.
# BALB/c mice were immunized by intraperitoneally injecting 0.2 ml of a solution obtained by suspending 2 μg of ovalbumin (OVA) and an aluminum hydroxide gel (1 mg) in a brine. After ten days, blood was taken from a heart, the serum was separated, and an IgE antibody value was measured.
# […] Administration was performed from immunization date to the day before blood collection for consecutive 10 days.
# 4) Measurement of Anti-OVA IgE Antibody Value (PCA Titer)
# The resulting mouse serum was prepared into a 2-fold dilution series with a brine, and each 50 μl of this was subcutaneously injected into a back of a pre-shaved Wistar rat. After 24 hours, 0.5 ml of a brine containing 1 mg of OVA and 5 mg of an Evans Blue dye was intravenously injected to induce a passive skin anaphylactic reaction (PCA).
row,SMILES,PCA
1,C/C(=C\c1cc(C)c(-c2ccc3[nH]ccc3c2)cc1C)C(=O)NC(C)C [Compound 76],4.3
2,C/C(=C\c1cc(C)c(-c2ccc(NC(C)C)cc2)cc1C)C(=O)NC1CCCCC1 [Compound 80],5.3
3,CC/C(=C\c1cc(C)c(-c2ccc(NC(C)C)cc2)cc1C)C(=O)NC1CCCC1 [Compound 142],0.0

# Same assay, conditions: dose 40 mg/kg orally for consecutive 10 days; anti-OVA IgE antibody value (PCA titer, Log2 of maximum serum dilution rate) in BALB/c mice
row,SMILES,PCA
1,COc1cc(-c2ccc(NC(C)C)cc2F)c(OC)cc1/C(C)=C/C(=O)NC(C)C [Compound 40],1.3
2,Cc1cc(-c2ccc(NC3CCCC3)cc2)c(C)cc1/C=C(\F)C(=O)NCCC(=O)O [Compound 408],0<
3,C/C(=C\c1c(C)c(C)c(-c2ccc(NC(C)C)cc2F)c(C)c1C)C(=O)N[C@H](C)C(=O)O [Compound 420],0<

# Tested on: Human lymphocyte
# Experiment: suppression of IgE antibody production in human lymphocyte stimulated with anti-human CD40 antibody and IL-4
# Assay type: cell-based
# Conditions: 216 h; IgE antibody production by human lymphocyte, anti-human CD40 antibody + IL-4, cultured for 9 days, ELISA
# Protocol: Effect of Suppressing Antibody Production Using Human Lymphocyte
# 1) Human Peripheral Blood
# Human peripheral blood was collected with a plastic syringe containing heparin (final concentration 1.5%) from a vein of an adult healthy person, and subjected to collection of lymphocyte immediately after blood collection.
# To the RPMI medium (Sigma) were added 10% of fetal bovine serum, (HyClone Lab.) which had been immobilized at 56° C. for 30 minutes, penicillin (100 units/ml) and streptomycin (100 μg/ml) (Invitrogen), which was used.
# The present compound was dissolved in dimethyl sulfoxide (Nakalai Tesque) to 2 mg/ml and, thereafter, the solution was diluted with a medium to a final concentration of 0.01 pg/ml to 10 μg/ml.
# Human peripheral blood was mixed with an equal amount of PBS-10 mM EDTA, 10 ml of this was overlaid on a tube containing 3 ml of Ficoll-Paque Plus (Pharmacia Biotech), followed by centrifugation at room temperature and 300×g for 30 minutes to obtain a lymphocyte layer. The collected cell suspension was centrifugation-washed with a sterilized Hanks's balanced salt solution (Invitrogen), passed through a nylon mesh, and centrifugation-washed with a medium, which was used in an experiment as human lymphocyte.
# 5) Inducement of IgE Antibody Production Due to B cell Stimulation
# Human lymphocyte was seeded on a 96-well culturing plate (Sumitomo Bakelite) to 2×10^5 cells per well, and the compound, an anti-human CD40 antibody (Pharmingen, 2 μg/ml), and human recombinant interleukin-4 (IL-4) (PEPROTECH, 0.1 μg/ml) were added, followed by culturing at 37° C. under the presence of 5% CO2 (0.2 ml/well). After cultured for 9 days, an amount of an antibody produced in the supernatant was quantitated by a specific ELISA method.
# 6) Quantitation of IgE Antibody
# For quantitating IgE, a commercially available kit, MESACUP IgE Test (Medical & Biological Laboratories Co., Ltd.) was used. An experimental method was according to the manual, an experiment was performed duplicately, and an average was obtained.
row,IC50,SMILES
1,3.7 ng/mL,COc1cc(-c2ccc(NC(C)C)cc2F)c(OC)cc1/C(C)=C/C(=O)NC(C)C [Compound 40]
2,4.6 ng/mL,C/C(=C\c1cc(C)c(-c2ccc(NC(C)C)cc2)cc1C)C(=O)NC1CCCCC1 [Compound 80]
3,8 ng/mL,Cc1cc(-c2ccc(NC3CCCC3)cc2)c(C)cc1/C=C(\F)C(=O)NCCC(=O)O [Compound 408]
4,39 ng/mL,C/C(=C\c1c(C)c(C)c(-c2ccc(NC(C)C)cc2F)c(C)c1C)C(=O)N[C@H](C)C(=O)O [Compound 420]

# The remaining lines, values behind:
row,SMILES,IC50
1,C/C(=C\c1cc(C)c(-c2ccc3[nH]ccc3c2)cc1C)C(=O)NC(C)C [Compound 76],1.6 ng/mL
2,CC/C(=C\c1cc(C)c(-c2ccc(NC(C)C)cc2)cc1C)C(=O)NC1CCCC1 [Compound 142],8.4 ng/mL
